Some test systems named below: NCI-H522 lung; SK-MEL-28 melanoma; U251 CNS; MDA-MB-231 breast; HCC-2998 colon; MOLT-4 leukemia; SN12C renal; NCI/ADR-RES ovarian; HOP-92 NSCLC; LOX IMVI melanoma.
Holding throughout (assay): NCI tumour cell line growth inhibition, 48 h

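A five-concentration, 48-hour dose response in 96-well plates underlies each endpoint, interpolated linearly between surrounding concentrations. TGI denotes the concentration required for complete inhibition of growth.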

Turning to `CCOC(=O)CCC(NC(=O)Cc1ccc(Oc2nc3ccccc3nc2-c2ccccc2)cc1)C(=O)OCC` (stereo unspecified), the TGI with NCI-H522 lung, with SK-MEL-28 melanoma, with U251 CNS, in the assay with MDA-MB-231 breast, with HCC-2998 colon and in the assay with MOLT-4 leukemia was greater than 100 µM each time. Moreover, the TGI in the assay on SN12C renal and in the assay on NCI/ADR-RES ovarian was greater than 100 µM in each case.

Regarding `CC12ON(P(=O)(c3ccccc3)c3ccccc3)C(C)(c3ccccc31)c1ccccc12`, the TGI in the assay with NCI-H522 lung, in the assay on SK-MEL-28 melanoma, with HOP-92 NSCLC, with U251 CNS, with LOX IMVI melanoma and with MDA-MB-231 breast was greater than 100 µM throughout. Also, the TGI in the assay on HCC-2998 colon, with MOLT-4 leukemia, in the assay with SN12C renal and in the assay on NCI/ADR-RES ovarian was greater than 100 µM in each case.

With `CN(C)CCNC(=O)c1ccc(Cl)c2cc3ccccc3nc12`, the TGI in the assay with NCI-H522 lung amounted to 2.07 µM; with SK-MEL-28 melanoma, 4.03 µM; in the assay with HOP-92 NSCLC it was 2.2 µM; with U251 CNS, 10.6 µM; in the assay with LOX IMVI melanoma, 1.4 µM; with MDA-MB-231 breast, 3 µM. In addition, the TGI was determined as 3.52 µM in the assay on HCC-2998 colon, 4.03 µM in the assay on MOLT-4 leukemia, 4.18 µM in the assay with SN12C renal and 5.65 µM in the assay with NCI/ADR-RES ovarian.

As to `CCCC(=O)NC(Nc1ccc(F)cc1)(C(F)(F)F)C(F)(F)F`, the TGI with NCI-H522 lung, with SK-MEL-28 melanoma, in the assay on HOP-92 NSCLC, in the assay on U251 CNS, in the assay with LOX IMVI melanoma and in the assay on MDA-MB-231 breast was greater than 100 µM each time. Also, the TGI in the assay on HCC-2998 colon, with MOLT-4 leukemia, in the assay with SN12C renal and in the assay on NCI/ADR-RES ovarian was greater than 100 µM throughout.

For `CN[C@@H](C)[C@@H](O)c1ccccc1`, the TGI in the assay with NCI-H522 lung is greater than 10 µM; in the assay with SK-MEL-28 melanoma it was greater than 100 µM; with HOP-92 NSCLC, greater than 100 µM; in the assay with U251 CNS, greater than 100 µM; in the assay with LOX IMVI melanoma, greater than 100 µM; in the assay on MDA-MB-231 breast it was greater than 10 µM. In addition, the TGI in the assay with HCC-2998 colon, with MOLT-4 leukemia, in the assay on SN12C renal and with NCI/ADR-RES ovarian was greater than 100 µM in each case.

As to `O=[N+]([O-])c1ccc(N2N=C(c3ccc4ccccc4c3O)CC2c2ccc(Cl)cc2)c([N+](=O)[O-])c1` (stereo unspecified), the TGI with NCI-H522 lung is 62.4 µM; with SK-MEL-28 melanoma, greater than 100 µM; in the assay with HOP-92 NSCLC, greater than 100 µM; in the assay on U251 CNS, greater than 100 µM; in the assay with MDA-MB-231 breast, greater than 100 µM; in the assay with HCC-2998 colon it was greater than 100 µM. For the same compound, the TGI is 49 µM with MOLT-4 leukemia, greater than 100 µM with SN12C renal and greater than 100 µM in the assay on NCI/ADR-RES ovarian.

`COc1ccc(N=C2C(=Nc3ccc(OC)cc3)N(c3ccc(N(C)C)cc3)C(=S)N2c2ccc(OC)cc2)cc1`: the TGI in the assay on NCI-H522 lung, in the assay with SK-MEL-28 melanoma, in the assay on HOP-92 NSCLC, in the assay on U251 CNS, in the assay on LOX IMVI melanoma and with MDA-MB-231 breast was greater than 100 µM in each case. Besides, the TGI in the assay on HCC-2998 colon, in the assay with MOLT-4 leukemia, with SN12C renal and in the assay on NCI/ADR-RES ovarian was greater than 100 µM throughout.

For the compound `Cc1cc(N2CCCC2)c([N+](=O)[O-])cc1[N+](=O)[O-]`, the TGI with NCI-H522 lung, in the assay on SK-MEL-28 melanoma, in the assay with HOP-92 NSCLC, in the assay with U251 CNS, with LOX IMVI melanoma and with MDA-MB-231 breast was greater than 100 µM each time. Further, the TGI in the assay on HCC-2998 colon, in the assay with MOLT-4 leukemia, in the assay with SN12C renal and in the assay on NCI/ADR-RES ovarian was greater than 100 µM throughout.

Consider `Nc1nc(=O)n(C2OC(CO)C(O)C2O)c2ncc(-c3ccc(-c4ccccc4)cc3)nc12` (stereo unspecified), for which the TGI with NCI-H522 lung was greater than 100 µM; with HOP-92 NSCLC, greater than 100 µM; in the assay on U251 CNS, 88.9 µM; with LOX IMVI melanoma, greater than 100 µM; in the assay on MDA-MB-231 breast, 57.7 µM; in the assay on HCC-2998 colon it was greater than 100 µM. Further, the TGI with MOLT-4 leukemia, in the assay on SN12C renal and in the assay on NCI/ADR-RES ovarian was greater than 100 µM in each case.

Regarding `COc1ccc(CNc2nc3cc(C(F)(F)F)ccc3nc2-c2ccccc2)cc1OC`, the TGI with NCI-H522 lung was greater than 100 µM; in the assay on LOX IMVI melanoma, 76.8 µM; with MDA-MB-231 breast, greater than 100 µM; with HCC-2998 colon it was 45.9 µM; with MOLT-4 leukemia, greater than 100 µM; in the assay with NCI/ADR-RES ovarian, greater than 100 µM.

Consider `COC(=O)C1=CON2C3CC4CC(C3)CC(C4)C12C` (stereo unspecified), for which the TGI in the assay with NCI-H522 lung, with SK-MEL-28 melanoma, with HOP-92 NSCLC, in the assay on U251 CNS, in the assay with LOX IMVI melanoma and in the assay on MDA-MB-231 breast was greater than 100 µM throughout. Moreover, the TGI with HCC-2998 colon, in the assay with MOLT-4 leukemia, with SN12C renal and in the assay with NCI/ADR-RES ovarian was greater than 100 µM throughout.

For `COc1cc(OC2OC(COC(=O)c3cc(O)c(O)c(O)c3)C(O)C(O)C2O)ccc1O` (stereo unspecified), the TGI with NCI-H522 lung, with SK-MEL-28 melanoma, in the assay on HOP-92 NSCLC, in the assay on U251 CNS, in the assay with LOX IMVI melanoma and with MDA-MB-231 breast was greater than 100 µM each time. Moreover, the TGI in the assay with HCC-2998 colon, in the assay on MOLT-4 leukemia, with SN12C renal and with NCI/ADR-RES ovarian was greater than 100 µM in each case.

In the case of `COc1ccc([C@]23CCN4COC[C@@H]([C@H]42)C2(CC3)OCC(C)(C)CO2)cc1OC`, the TGI in the assay with NCI-H522 lung, with SK-MEL-28 melanoma, in the assay on HOP-92 NSCLC, with U251 CNS, with LOX IMVI melanoma and in the assay with MDA-MB-231 breast was greater than 100 µM throughout. The TGI in the assay with HCC-2998 colon, in the assay on MOLT-4 leukemia, with SN12C renal and in the assay with NCI/ADR-RES ovarian was greater than 100 µM in each case.

`COc1ccc2c(c1)c1nn(CCN3CCCCC3)c3ccc4c(=O)n(CCN(C)C)c(=O)n2c4c13`: the TGI was less than 0.0341 µM in the assay with NCI-H522 lung; 0.596 µM in the assay on SK-MEL-28 melanoma; 0.901 µM in the assay on HOP-92 NSCLC; 0.111 µM in the assay with U251 CNS; 0.178 µM in the assay on LOX IMVI melanoma; 0.126 µM in the assay with MDA-MB-231 breast. Besides, the TGI in the assay with HCC-2998 colon came to 0.03 µM; in the assay on SN12C renal it was 0.0984 µM; in the assay with NCI/ADR-RES ovarian, 1.91 µM.

These data come from PubChem BioAssay (NCI).
